Test [1] is described as follows: Y-maze test in scopolamine-induced cognitive impairment animal model. As to conditions: 5 mg/kg. The format is in vivo. The procedure: The Y-maze test is used to assess short-term memory and momentary spatial perception by evaluating the animal's ability to remember the previously explored arm, with higher memory performance indicated by a lower tendency to re-enter the same arm.
Specifically, scopolamine, which induces memory impairment, was administered together with either saline (vehicle), a known treatment for cognitive impairment or AD (donepezil or decursin), or the strain of the present invention, followed by the Y-maze test.
The Y-maze consists of three arms with dimensions of 40 cm in length, 3 cm in width, and 15 cm in height, with the angles between the arms set at 120°. […]
The control and experimental groups were placed at the center of the Y-maze, where they were allowed to explore the maze for 8 minutes. The movement of each individual was analyzed using EthoVision XT16 (Noldus, USA). The experimental results were obtained as spontaneous alternation behavior (%) and calculated according to the following equation: […]

The nature of test [2]: Passive avoidance test in scopolamine-induced cognitive impairment animal model. The format is in vivo, rodents. Particulars: 5 mg/kg, 24 h after shock. From the text: The passive avoidance test is a cognitive ability assessment experiment that utilizes the preference of rodents to stay in dark places.
Specifically, saline (as a vehicle), donepezil (a therapeutic agent for cognitive impairment or AD), decursin (a functional ingredient recognized for improving cognitive function), or the strain of the present invention was co-administered with scopolamine which induces memory impairment, followed by the passive avoidance test. […]
The control and experimental groups were placed in chambers consisting of a bright chamber and a dark chamber of the same size. […] After 24 hours, the animals were again placed in the bright chamber, and the time taken to enter the dark chamber was measured for up to 300 seconds to evaluate memory.

As to `COc1cc2c(cc1OC)C(=O)C(CC1CCN(Cc3ccccc3)CC1)C2` (stereo not shown) [donepezil], the “increase in spontaneous alternation behavior compared to vehicle-treated group (G2)” value in test [1] is listed as approximately 1.3 fold. For the same molecule, the memory recovery entry in test [2] is listed as “about 74%”.
The corresponding values for `CC(C)=CC(=O)O[C@H]1Cc2cc3ccc(=O)oc3cc2OC1(C)C` [decursin] are approximately 1.3 fold and “about 87%”.

For the origin of these results see patent US20260151441A1, “NOVEL USE OF LACTOBACILLUS DELBRUECKII SUBSP. LACTIS STRAIN” (CKD BIO CORPORATION, priority 2022, published 2026).
